pIC50: −log10 of the molar value.
Assays:
GATA2 mRNA = GATA2 mRNA in cells from SCD donors; format: cell-based, human; details: 1 μM, 3 days of culture
histone acetylation = experiment: Histone acetylation by western blot in primary human erythroblasts; format: cell-based; details: 1 μM or 5 μM, 24 hours
Text: The EpiQuick Total Histone Extraction kit (Epigentek) was used to isolate histones. Histone lysates were size separated on Bolt 4–12% Bis-Tris gradient gels (Life Technologies), transferred to polyvinylidene difluoride membrane and detected using standard western blotting technique. GATA2 protein was detected by lysing cells in RIPA denaturing buffer supplemented with protease inhibitors followed by detection using a Wes capillary electrophoresis system (Protein Simple) or western blotting on nitrocellulose membrane. Antibodies used for western blotting: Anti-GATA2 [clone EPR2822(2)] (Abcam), anti-ACTB [clone 1E35] (Cell Signaling Technology), anti-H3K9/14 [catalog number 17–615] (EMD Millipore), anti-H3K56ac [clone EPR996Y] (Abcam), anti-H3K79 [catalog number 07–750] (EMD Millipore), anti-H2BK5 [catalog number 2574] (Cell Signaling Technology), anti-H3K9me3 [catalog number 07–442] (EMD Millipore), and anti-total-H4 [clone 62-141-13] (EMD Millipore).
Next, ACY-957’s ability to inhibit HDAC activity in primary hematopoietic progenitors derived from human bone marrow was investigated. […]

HDAC2 = HDAC2 (Homo sapiens, UniProt Q92769); experiment: Cellular HDAC2 inhibition (HDAC-Glo 2 Kit) in BM cells; format: cell-based; set-up: endogenous in cells; host or cells: primary human bone marrow (BM) cells expanded in CS1 media; details: CS1 expansion media 6 days, then 48 hours with compound, n = 6
Experimental: The HDAC-Glo 2 Kit (Promega) was used for in vivo HDAC2 inhibition assays [27, 28]. First, BM cells were expanded in CS1 for 6 days. Next, 25000 cells in 25 μL of CS1 expansion media was placed in a 384-well plate in the presence of compound. Cells were cultured for an additional 48 hours, followed by luminescence detection in the lytic format as described by the manufacturer’s protocol.

GATA2 binding = experiment: GATA2 ChIP-Seq in erythroid progenitors; format: cell-based, human; details: 1 μM
Experimental: Cells were fixed in 1% formaldehyde for 15 minutes at room temperature. Crosslinking reaction was extinguished by adding glycine to 125 mM. Cells were washed three times in PBS, 0.5% lgepal CA-630, 1 mM phenylmethanesulfonyl fluoride (PMSF). Cell pellets were snap frozen on dry ice and stored at -80°C.
ChIP-Seq was performed by Active Motif (Carlsbad, CA). Chromatin (30 μg) from vehicle (n = 1) or ACY-957 (n = 1) treated cells was immunoprecipitated (n = 1, each) with antibodies against GATA2 (20 μL, sc-9008, Santa Cruz Biotechnology), HDAC1 (20 μg, ab7028, Abcam), or HDAC2 (4 μg, ab12169, Abcam). ChIP DNA, as well as a control sample composed of equal amounts of input DNA from each treatment group, was processed into Illumina libraries using standard procedures, and libraries were sequenced on HiSeq 2000. The 50-nt sequence reads were mapped to the human genome, build Hg19, using the BWA algorithm with default settings. For the analysis, all data files were normalized to the same number of unique alignments without duplicate reads (24 million). Sequence tags were extended in silico (using Active Motif software) at their 3′-ends to a length of 150 bp. To identify the density of fragments (extended tags) along the genome, the genome was divided into 32-nt bins and the number of fragments in each bin was determined. The resulting histogram files (bigwig format) are presented in figures using the Santa Cruz Genome Browser. Visualizations were exported as an eps file and formatted using Adobe Illustrator. Regions of GATA2 enrichment (intervals) were determined using MACS peak calling software, which identifies enrichments in the ACY-957 or vehicle treated ChIP data file when compared to the input DNA data file (random background). To compare peak metrics between vehicle and ACY-957 treated samples, overlapping intervals are grouped into active regions, which are defined by the start coordinate of the most upstream interval and the end coordinate of the most downstream interval. In locations where only one sample has an interval, this interval defines the active region. […]

Sequence of HDAC2 (Q92769 whole entry): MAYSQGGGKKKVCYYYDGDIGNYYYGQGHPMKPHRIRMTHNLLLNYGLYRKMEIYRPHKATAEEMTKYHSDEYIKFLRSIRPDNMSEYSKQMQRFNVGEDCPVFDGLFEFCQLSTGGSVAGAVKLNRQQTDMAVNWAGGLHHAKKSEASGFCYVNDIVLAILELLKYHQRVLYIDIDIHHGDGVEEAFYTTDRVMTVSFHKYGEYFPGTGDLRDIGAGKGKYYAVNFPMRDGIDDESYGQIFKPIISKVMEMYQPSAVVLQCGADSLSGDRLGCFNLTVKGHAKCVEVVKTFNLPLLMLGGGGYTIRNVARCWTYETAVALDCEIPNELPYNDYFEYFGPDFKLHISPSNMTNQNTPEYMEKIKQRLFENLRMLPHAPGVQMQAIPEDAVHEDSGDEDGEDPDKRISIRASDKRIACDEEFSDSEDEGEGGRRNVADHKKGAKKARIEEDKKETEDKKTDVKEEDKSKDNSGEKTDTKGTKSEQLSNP

- pIC50 (HDAC2): 6.52
- GATA2 binding at the other 5 regions of the β-like globin gene cluster (GATA2 binding; ChIP-Seq): not affected
SMILES: Nc1ccc(-c2cccs2)cc1NC(=O)c1ccc2nc(N3CCNCC3)ccc2c1 [ACY-957]
- GATA2 expression in primary cells derived from SCD patients (GATA2 mRNA): elevated GATA2 expression
- acetylation of H3K9/14ac, H3K56, H3K79ac and H2BK5ac (histone acetylation): dose-dependent accumulation of acetylation
- histone H3 lysine 9 tri-methylation (H3K9me3) (histone acetylation): not affected
- maximum increase in GATA2 binding peak height (GATA2 binding; -1.8 kb GATA2 regulatory region): 3 fold
- increase in GATA2 binding at the HBD promoter region (GATA2 binding; ChIP-Seq): 1.8 fold
